The test system of test [1] is OR7 aptamer (DNA, aptamer) CAAGGAAAATCCTTCAACGAAGTGGG
Put plainly: transmembrane electrochemical impedance spectroscopy (potentiostat and impedance reader). Particulars: 137 mM NaCl, 2.7 mM KCl, 5 mM MgCl2; PBS pH 7.4, 3% DMSO, room temperature; aptamer immobilised on membrane; control, highest concentration not given.

The test system is the same in test [2]. Put plainly: transmembrane electrochemical impedance spectroscopy (ADuCM350 impedance reader), Langmuir fit. Particulars: 137 mM NaCl, 2.7 mM KCl, 5 mM MgCl2; PBS pH 7.4, 3% DMSO, room temperature; aptamer immobilised on membrane.
Test [3] shares this test system. Put plainly: transmembrane electrochemical impedance spectroscopy (commercial potentiostat), Langmuir fit. To be noted: 137 mM NaCl, 2.7 mM KCl, 5 mM MgCl2; PBS pH 7.4, 3% DMSO, room temperature; aptamer immobilised on membrane.

The KD is the free concentration of one partner at which half of the binding sites on the other are occupied at equilibrium, for simple one-to-one binding.

Consider `CCN(CC)CCCC(C)Nc1ccnc2cc(Cl)ccc12` (stereo not drawn), for which, in test [1], the binding result is reported as “no”. As to `CCN(CC)Cc1cc(Nc2ccnc3cc(Cl)ccc23)ccc1O`, the KD in test [2] turned out to be 4 nM; in test [3], 2 nM.
